Test results published in patent publication US20130065959A1, “SANITIZING MEAT WITH PERACID AND 2-HYDROXY ORGANIC ACID COMPOSITIONS” (Fresh Express Incorporated, priority 2009, published 2013).

Columns and labels:
[1] = system: E. coli K-12 (ATCC 25253); test: Attached cells on chicken wing skin (Example 8); type: cell-based; details: Middle chicken wing skin, 10.5 min
Description: Inoculum preparation: ATCC freeze dried culture was rehydrated in 10 mL of sterilized TSB and mixed homogeneously. 0.1 mL of the stock solution was transferred to 10 mL of TSB and incubated at 37C for 24 h. Enrichment was streaked to confirm purity. 2 mL of the enriched stock was transferred to 200 mL of TSB and incubated at 37C for 24 h for E. coli K-12 (ATCC 25253) (EC) resulting in ˜10^8 cfu/mL stationary phase culture stock. The stock was cooled at 4C for 1 h. Microbial population of the stationary phase stock culture was enumerated by means of serial dilution with 9-mL Butterfield phosphate buffer tubes and spread plating on Tryptic Soy Agar (TSA) pre-poured agar plates for EC
Chicken wing surface inoculation: The 200 mL ˜10^8cfu/mL stock culture solution was homogeneously mixed by shaking and swirling the Erlenmeyer flask. The 200 mL culture was separated into 4 centrifuge tubes (50 mL each) and centrifuged at 10,000 rpm and 4C for 15 min. The stock culture pellet was re-suspended with 5 mL of 5% Horse Serum. All the re-suspended cultures from the four centrifuge tubes were combined to form 20 mL˜10^9 cfu/mL inoculating stock culture. The chicken middle wing was pat dried by paper towel. A permanent marker was used to mark a 2.5 cm×2.5 cm square at the middle of the flat surface of the chicken wing for inoculation. 50 uL inoculum in the form of 2 uL droplets were spiked onto the marked square on the chicken wing skin. The inoculated chicken wing was placed into a sterile polypropylene basket. The spiked chicken wing inside the polypropylene basket was dried inside a biological safety cabinet for 120 min at 18 to 24C.
Treatment of inoculated chicken wing: Each sample of inoculated chicken wing was placed into a 2.5L stomacher bag containing 500 mL of the tested solution for 10 minutes with intermittent 30 s-shakings at 0, 4, and 9 min. The tested solutions included city water, lactic acid solution (LA), peracetic acid solution (PA), and FreshRinse solution (FR). The treated chicken wing was immediately removed from the treatment solution after 10 min and placed into a sterilized Petri-dish with the marked side facing up. A pre-wet sterilized swab dipped in 10 mL Butterfield phosphate buffer with sodium thiosulfate was used to swab the marked area. After swabbing the cotton wool swab was immediately placed back into the 10 mL Butterfield phosphate buffer with sodium thiosulfate and mixed. One mL was immediately transferred from the aforementioned tube to a 9 mL Butterfield phosphate buffer. The total treatment time including the exposure time, the swabbing time, and the transfer time was 10.5 min. Each solution treatment was performed in duplications. The reduction for each solution treatment was compared to that of the city water treatment

[2] = system: Pseudomonas aeruginosa (ATCC 9027); test: Attached cells on non-food surface coupons (Example 6); type: cell-based; details: 90 sec
Description: Inoculum preparation: Pseudomonas aeruginosa (ATCC 9027) freeze dried culture was rehydrated in 10 mL of sterilized nutrient broth (NB) and mixed homogeneously. 0.1 mL of the stock solution was transferred to 10 mL of NB and incubated at 37C for 24 h. Enrichment was streaked to confirm purity. 10 mL of the enriched stock was transferred to 1,000 mL of NB and incubated at 37C for 24 h resulting in ˜10^8 cfu/mL stationary phase culture stock. The stock was cooled at 4C for 1 h. Microbial population of the stationary phase stock culture was enumerated by means of serial dilution with 9-mL Butterfield phosphate buffer tubes and spread plating on Nutrient Agar […] pre-poured agar plates.
Non-food surface inoculation: The 1000 mL˜10^8 cfu/mL stock culture solution was homogeneously mixed by shaking and swirling the Erlenmeyer flask. The 1000 mL culture was separated into 20 centrifuge tubes (50 mL each) and centrifuged at 10,000 rpm and 4C for 15 min. The stock culture pellet was re-suspended with 50 mL of NB. All the re-suspended cultures from the 20 centrifuge tubes were combined to form 1,000 mL˜10^8 cfu/mL inoculating stock culture. 15 mL of the P. aeruginosa inoculating stock together with a non-food surface coupon (2.5 cm×5 cm) were placed in a sterilized 50mL-centrifuge tube and incubated for 24 h at 37C. After 24 hr, the coupon was transferred to a sterile Petri dish and placed in an oven to dry for 1 hour at 35C. The coupons were cut from stainless steel sheet, wood, glass slide, and plastic sheet.
Treatment of inoculated non-food surfaces: 1 mL of test solution was dispensed onto a 2.5cm×2.5 cm marked area of each inoculated coupon for 60 s. A pre-wet sterilized cotton swab was dipped in 10 mL Butterfield phosphate buffer with sodium thiosulfate and swabbed the marked area on the coupon after 60 s exposure. The swabbed was then immediately placed into the 10 mL Butterfield phosphate buffer with sodium thiosulfate and mixed. One mL was immediately transferred from the aforementioned tube to a 9 mL Butterfield phosphate buffer. The total treatment time including the exposure time, the swabbing time, and the transfer time was 90 s. Each solution treatment was performed in duplications. The reduction for each solution treatment was compared to that of the city water treatment.

Listeria innocua = test: Attached cells challenge test on produce leaves (Example 1); type: cell-based
[3] = cited from earlier work

SMILES: CC(O)C(=O)O (stereo not shown) [Lactic Acid, lactic acid]
- Log reductions ([1]; PA 0 ppm, LA 5,000 ppm): 0.3
- Log reductions ([1]; PA 0 ppm, LA 10,000 ppm): 0.7
- Log reductions ([2]; Glass coupon, PA 0 ppm, LA 1,250 ppm): 0.4
- Log reductions ([2]; Glass coupon, PA 0 ppm, LA 2,500 ppm): 1.7
- Log reductions ([2]; Plastic coupon, PA 0 ppm, LA 2,500 ppm): 0.6
- Log reductions ([2]; Plastic coupon, PA 0 ppm, LA 5,000 ppm): 1.2
- Log reductions ([2]; Stainless steel coupon, PA 0 ppm, LA 1,250 ppm): 1.6
- Log reductions ([2]; Stainless steel coupon, PA 0 ppm, LA 2,500 ppm): 1.9
- Log reductions ([2]; Wood coupon, PA 0 ppm, LA 2,500 ppm): 1.4
- Log reductions ([2]; Wood coupon, PA 0 ppm, LA 7,500 ppm): 3.6
- Log reduction, attached cells (Listeria innocua; Romaine, PAA 0 ppm, LA 0.6%): 1.1
- Log reduction, attached cells (Listeria innocua; Romaine, PAA 0 ppm, LA 0.9%): 1.4
- Log reduction, attached cells (Listeria innocua; Romaine, PAA 0 ppm, LA 1.2%): 1.5
- Log reduction, attached cells (Listeria innocua; Spinach, PAA 0 ppm, LA 0.6%): 0.1
- Log reduction, attached cells (Listeria innocua; Spinach, PAA 0 ppm, LA 0.9%): 0.2
- Log reduction, attached cells (Listeria innocua; Spinach, PAA 0 ppm, LA 1.2%): 0.2

SMILES: CC(=O)OO [Peroxyacetic acid, peroxyacetic acid]
- Log reductions ([1]; PA 40 ppm, LA 0 ppm): 0.6
- Log reductions ([1]; PA 60 ppm, LA 0 ppm): 0.5
- Log reductions ([1]; PA 80 ppm, LA 0 ppm): 1.0
- Log reductions ([2]; Glass coupon, PA 60 ppm, LA 0 ppm): 0.2
- Log reductions ([2]; Glass coupon, PA 80 ppm, LA 0 ppm): 0.0
- Log reductions ([2]; Plastic coupon, PA 60 ppm, LA 0 ppm): 1.2
- Log reductions ([2]; Plastic coupon, PA 80 ppm, LA 0 ppm): 0.9
- Log reductions ([2]; Stainless steel coupon, PA 60 ppm, LA 0 ppm): 1.5
- Log reductions ([2]; Stainless steel coupon, PA 100 ppm, LA 0 ppm): 1.4
- Log reductions ([2]; Wood coupon, PA 100 ppm, LA 0 ppm): 1.0
- Log reductions ([2]; Wood coupon, PA 140 ppm, LA 0 ppm): 0.8
- Oxidation Capacity [3]: 1.81 eV
- Log reduction, attached cells (Listeria innocua; Romaine, PAA 60 ppm, LA 0.0%): 0.6
- Log reduction, attached cells (Listeria innocua; Romaine, PAA 70 ppm, LA 0.0%): 1.0
- Log reduction, attached cells (Listeria innocua; Romaine, PAA 80 ppm, LA 0.0%): 1.7
- Log reduction, attached cells (Listeria innocua; Spinach, PAA 60 ppm, LA 0.0%): 0.3
- Log reduction, attached cells (Listeria innocua; Spinach, PAA 70 ppm, LA 0.0%): 0.5
- Log reduction, attached cells (Listeria innocua; Spinach, PAA 80 ppm, LA 0.0%): 1.2
